Assay results reported in the supplement of paper PMC12592484.

Columns and labels:
Assay in all cases: drug sensitivity score (DSS2, normalised partial AUC of dose-response, 72 h CellTiter-Glo viability) (DSS (dimensionless)); higher = more sensitive (stronger growth inhibition / cytotoxicity); extreme values may be limits of the assay
WPMY-1 = test system: WPMY-1
Method in brief: (§1)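 In BREEZE, the drug sensitivity score was derived as a partial area under a fitted logistic dose–response curve over the log of that curve's upper asymptote; a higher score marks a more sensitive response. The input came from low-passage primary prostate cancer-associated fibroblasts, PF179T, WPMY-1, LNCaP and 22Rv1 cells, each seeded into 384-well plates with compounds pre-dispensed at five doses spanning a 10,000-fold range. CellTiter-Glo 2.0 luminescence after 72 h gave viability, which was normalized to vehicle and positive-control wells.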

CAF#2 = test system: CAF#2 (primary prostate cancer-associated fibroblasts of iCAF-like type)
Method in brief: as §1

22Rv1 = test system: 22Rv1
Method in brief: as §1

CAF#6 = test system: CAF#6 (primary prostate cancer-associated fibroblasts of iCAF-like type)
Method in brief: as §1

LNCAP = test system: LNCAP
Method in brief: as §1

CAF#5 = test system: CAF#5 (primary prostate cancer-associated fibroblasts of myCAF-like type)
Method in brief: as §1

CAF#1 = test system: CAF#1 (primary prostate cancer-associated fibroblasts of myCAF-like type)
Method in brief: as §1

CAF#7 = test system: CAF#7 (primary prostate cancer-associated fibroblasts of myCAF-like type)
Method in brief: as §1

CAF#4 = test system: CAF#4 (primary prostate cancer-associated fibroblasts of iCAF-like type)
Method in brief: as §1

CAF#3 = test system: CAF#3 (primary prostate cancer-associated fibroblasts of myCAF-like type)
Method in brief: as §1

PF179T = test system: PF179T
Method in brief: as §1

| Structure (SMILES) | drug sensitivity score (WPMY-1) | drug sensitivity score (CAF#2) | drug sensitivity score (22Rv1) | drug sensitivity score (CAF#6) | drug sensitivity score (LNCAP) | drug sensitivity score (CAF#5) | drug sensitivity score (CAF#1) | drug sensitivity score (CAF#7) | drug sensitivity score (CAF#4) | drug sensitivity score (CAF#3) | drug sensitivity score (PF179T) |
| --- | --- | --- | --- | --- | --- | --- | --- | --- | --- | --- | --- |
| Nc1ncn([C@H]2C[C@H](O)[C@@H](CO)O2)c(=O)n1 [Decitabine] (tested concentration range 1-10000 nM) | 0.8 | 0.8 | 1.1 | 0.6 | 0 | 1.6 | 0 | 0 | 0 | 0.1 | 1.8 |
| CC(=O)N(O)CCCCCNC(=O)CCC(=O)N(O)CCCCCNC(=O)CCC(=O)N(O)CCCCCN [Deferoxamine] (tested concentration range 1-10000 nM) | 5.3 | 4.8 | 4.9 | 1.4 | 3.2 | 2.4 | 0.9 | 1.6 | 3.2 | 0.2 | 5.7 |
| O=C(O)CCCCC(CCSCc1ccccc1)SCc1ccccc1 (centres undefined) [Devimistat] (tested concentration range 1-10000 nM) | 0 | 0 | 0 | 0 | 0 | 0 | 0 | 0 | 0 | 0 | 0 |
| C[C@@H]1C[C@H]2[C@@H]3CCC4=CC(=O)C=C[C@]4(C)[C@@]3(F)[C@@H](O)C[C@]2(C)[C@@]1(O)C(=O)CO [Dexamethasone] (tested concentration range 1-10000 nM) | 0 | 0 | 0 | 0 | 0 | 0 | 0 | 0.3 | 0 | 0 | 0 |
| C[C@H]1O[C@@H](O[C@H]2[C@@H](O)C[C@H](O[C@H]3[C@@H](O)C[C@H](O[C@H]4CC[C@@]5(C)[C@H](CC[C@@H]6[C@@H]5C[C@@H](O)[C@]5(C)[C@@H](C7=CC(=O)OC7)CC[C@]65O)C4)O[C@@H]3C)O[C@@H]2C)C[C@H](O)[C@@H]1O [Digoxin] (tested concentration range 0.1-1000 nM) | 14.7 | 13.8 | 14.4 | 10.8 | 12 | 13.4 | 10.2 | 11.2 | 19.4 | 8.7 | 13.6 |
| CCc1cnn2c(NCc3ccc[n+]([O-])c3)cc(N3CCCC[C@H]3CCO)nc12 [Dinaciclib] (tested concentration range 0.1-1000 nM) | 18.9 | 18.2 | 21.5 | 14.2 | 27.6 | 18 | 18.5 | 15.9 | 13 | 12.3 | 10.6 |
| CCN(CC)C(=S)SSC(=S)N(CC)CC [Disulfiram] (tested concentration range 5-50000 nM) | 0 | 3.7 | 0 | 0 | 0.1 | 6.6 | 5 | 0.1 | 0.9 | 0 | 0 |
| CC(=O)O[C@@]12CO[C@@H]1C[C@H](O)[C@@]1(C)C(=O)[C@H](O)C3=C(C)[C@@H](OC(=O)[C@H](O)[C@@H](NC(=O)OC(C)(C)C)c4ccccc4)C[C@@](O)([C@@H](OC(=O)c4ccccc4)[C@H]21)C3(C)C [Docetaxel] (tested concentration range 0.1-1000 nM) | 28.3 | 20.6 | 25.4 | 16.7 | 34.6 | 17.2 | 16.4 | 25.6 | 14.2 | 12.8 | 19.7 |
| Cc1ccc(-n2nc(C(C)(C)C)cc2NC(=O)Nc2ccc(OCCN3CCOCC3)c3ccccc23)cc1 [Doramapimod] (tested concentration range 1-10000 nM) | 0 | 2.7 | 2.5 | 0.9 | 5.4 | 0.6 | 1.9 | 1.4 | 0 | 1.2 | 2.1 |
| CN1CCN(c2ccc3nc(-c4c(N)c5c(F)cccc5[nH]c4=O)[nH]c3c2)CC1 [Dovitinib] (tested concentration range 1-10000 nM) | 0 | 2.6 | 0.2 | 0 | 0.3 | 0.8 | 0.2 | 0 | 0 | 0.7 | 0 |
| COc1cccc2c1C(=O)c1c(O)c3c(c(O)c1C2=O)C[C@@](O)(C(=O)CO)C[C@@H]3O[C@H]1C[C@H](N)[C@H](O)[C@H](C)O1 [Doxorubicin] (tested concentration range 0.1-1000 nM) | 9.8 | 7.8 | 12.2 | 0 | 0 | 6.7 | 6.5 | 0 | 2.6 | 0 | 7.5 |
| C[C@H](Nc1ncnc2nc[nH]c12)c1cc2cccc(Cl)c2c(=O)n1-c1ccccc1 [Duvelisib] (tested concentration range 0-500 nM) | 0.5 | 1 | 0 | 1.3 | 11 | 2.3 | 1.1 | 1.9 | 1.7 | 3.4 | 1.7 |
| NC(=O)/C(=C/n1cnc(-c2cc(C(F)(F)F)cc(C(F)(F)F)c2)n1)c1cncnc1 [Eltanexor] (tested concentration range 1-10000 nM) | 27.5 | 22.8 | 31.1 | 12.1 | 28.6 | 16.8 | 14.5 | 14.4 | 15.5 | 10.8 | 18.2 |
| CC(C)(O)CNc1nc(Nc2ccnc(C(F)(F)F)c2)nc(-c2cccc(C(F)(F)F)n2)n1 [Enasidenib] (tested concentration range 1-10000 nM) | 0 | 0 | 1.7 | 0 | 1.2 | 0 | 0 | 0 | 0 | 0.4 | 0 |
| COC(=O)N[C@@H](C)CNc1nccc(-c2cn(C(C)C)nc2-c2cc(Cl)cc(NS(C)(=O)=O)c2F)n1 [Encorafenib] (tested concentration range 0.1-1000 nM) | 0 | 0 | 2.3 | 0.9 | 2.3 | 0.7 | 0.6 | 1.3 | 0.5 | 2 | 0.6 |
| C[C@@H]1CN(C(=O)c2ccc(NC(=O)c3cc(O[C@H](C)c4c(Cl)ccc(F)c4Cl)c(N)nn3)cc2)C[C@H](C)N1 [Ensartinib] (tested concentration range 0.1-1000 nM) | 3 | 3.1 | 2.1 | 2.2 | 1.4 | 4.1 | 2.2 | 0.8 | 0.7 | 2.7 | 2.3 |
| Nc1ccccc1NC(=O)c1ccc(CNC(=O)OCc2cccnc2)cc1 [Entinostat] (tested concentration range 1-10000 nM) | 8.5 | 8.5 | 10.2 | 2.2 | 11.6 | 7.4 | 5 | 3.5 | 4.8 | 2.4 | 8.1 |
| CN1CCN(c2ccc(C(=O)Nc3n[nH]c4ccc(Cc5cc(F)cc(F)c5)cc34)c(NC3CCOCC3)c2)CC1 [Entrectinib] (tested concentration range 0.1-1000 nM) | 0.9 | 1.9 | 1.1 | 0.7 | 1 | 0.8 | 1.3 | 2.1 | 0 | 2.1 | 1 |
| CNC(=O)c1ccc(N2C(=S)N(c3ccc(C#N)c(C(F)(F)F)c3)C(=O)C2(C)C)cc1F [Enzalutamide] (tested concentration range 1-10000 nM) | 0 | 2.3 | 0 | 0.5 | 2.6 | 2.8 | 3.9 | 0 | 2.2 | 0 | 0.4 |
| Cn1cc(C2=C(c3cn(C4CCN(Cc5ccccn5)CC4)c4ccccc34)C(=O)NC2=O)c2ccccc21 [Enzastaurin] (tested concentration range 1-10000 nM) | 5.2 | 2.1 | 4.2 | 1.1 | 4.7 | 0 | 0 | 0 | 1.1 | 0 | 2.3 |
| NS(=O)(=O)NCCNc1nonc1/C(=N/O)Nc1ccc(F)c(Br)c1 [Epacadostat] (tested concentration range 1-10000 nM) | 0.2 | 1.1 | 0 | 0 | 0 | 0.9 | 0 | 1.1 | 2 | 0 | 0.5 |
| COc1cccc2c1C(=O)c1c(O)c3c(c(O)c1C2=O)C[C@@](O)(C(=O)CO)C[C@@H]3O[C@H]1C[C@H](N)[C@@H](O)[C@H](C)O1 [Epirubicin] (tested concentration range 0.1-1000 nM) | 9.5 | 6.2 | 10.1 | 7 | 15.7 | 4.4 | 4.8 | 7.9 | 2.8 | 3.7 | 6.7 |
| COCC1(CO)C(=O)C2CCN1CC2 (centres undefined) [Eprenetapopt] (tested concentration range 1-10000 nM) | 0 | 0 | 0 | 0 | 0 | 0.4 | 0.1 | 0.2 | 0 | 0 | 0 |
| COc1cc(OC)cc(N(CCNC(C)C)c2ccc3ncc(-c4cnn(C)c4)nc3c2)c1 [Erdafitinib] (tested concentration range 0.1-1000 nM) | 0 | 4.8 | 0 | 8 | 0 | 2.7 | 5.9 | 15 | 8.8 | 6.2 | 7.2 |
